Laboratory results: PMC9072415, “Activation of cannabinoid receptors in breast cancer cells improves osteoblast viability in cancer-bone interaction model while reducing breast cancer cell survival and migration” (Scientific Reports, 2022)
Entries after “also recorded” stand apart in the source; their conditions may differ.

Key:
Assay type in all cases: cell-based
[1] = tested on: cellular ROS in MDA-MB-231 cells; assay: DCFDA cellular ROS detection assay; conditions: 30 µM ACEA, 15 µM GW405833 or combination, 6 h
Experimental: Cellular reactive oxygen species (ROS) were monitored using the 2´,7´-dichlorofluorescin diacetate (DCFDA) Cellular ROS Detection Assay Kit (ab113851) (Abcam, Cambridge, UK) according to the manufacturer's instruction. In brief, MDA-MB-231 cells were seeded into a 96-black well plates with clear bottom at a density of 2.5 × 10^4 cells/well and grown overnight. Then, the cells were treated with ACEA, GW405833 or the combination of both for 6 h. At the end of the treatment, fluorescence signal of DCF was measured by using a multimode microplate reader (Spark 10 M) (Tecan Austria GmbH, Männedorf, Austria) with the excitation and emission wavelengths of 485 and 535 nm, respectively.

[2] = tested on: p-NF-κB p65 in MDA-MB-231 cells; assay: Western blot of p-NF-κB p65 expression; conditions: individual treatments, 48 h
Experimental: Twenty micrograms of protein samples were resolved by sodium dodecyl sulfate polyacrylamide gel electrophoresis (SDS-PAGE) (Invitrogen) gel before being transferred to nitrocellulose blotting membrane (GE Healthcare, Texas, USA).The membranes were then blocked with 5% (w/v) bovine serum albumin (BSA) (Capricorn Scientific, Hessen, Germany) for 2 h at room temperature, followed by the incubation at 4 °C overnight with primary antibodies. After washing, the membranes were incubated with the appropriate horseradish peroxidase (HRP)-conjugated secondary antibodies. Proteins on the immunoblots were visualized by enhanced chemiluminescence (ECL) (Millipore, MA, USA) and exposed to X-ray film (GE Healthcare). Protein band intensity was quantified using ImageJ software (National Institutes of Health, MD, USA). To relatively quantify the target protein expression, the intensity of target protein band was normalized to β-actin of each lane.

UMR-106 cells [3] = assay: UMR-106 viability (MTT) with conditioned media from agonist-pretreated MDA-MB-231 cells; conditions: MDA-MB-231 pretreated 48 h; CM collected after 48 h in serum-free DMEM
Experimental: To collect CM from MDA-MB-231 cells, cells were seeded into a 6-well plate at a density of 5.0 × 10^5 cells/well and grown for 24 h until reaching 80–90% confluence. In the pretreatment experiment, cells were treated with either ACEA, GW405833 or a combination of both for 48 h. After that, cells were washed with phosphate buffered saline (PBS) and incubated in serum-free DMEM. Forty-eight hours later, CM from these cells was harvested, filtered through a syringe filter (pore size of 0.2 µm; Sartorius Stedim Biotech GmbH, Göttingen, Germany) to remove cells and debris, and stored at − 80 °C for later experiments (Fig. 1a).
Cell viability was assessed using the 3-(4,5-dimethylthiazol-2-yl)-2,5-diphenyltetrazolium bromide (MTT) colorimetric assay. The assay was performed according to a previously described method. In brief, cells were seeded into a 96-well plate at a density of 1.0 × 10^4 cells/well and allowed to attach overnight. Thereafter, they were treated with ACEA, GW405833 or the combination of both for the indicated times. […] The optical density at 595 nm was measured using a microplate reader (Multiskan EX) (Thermo Fisher Scientific, MA, USA). The percentage of cell viability was calculated based on the absorbance ratio between cells treated with the compounds and control multiplied by 100 (percent cell viability normalized to control).

MDA-MB-231 cells [4] = assay: Wound healing cell migration assay; conditions: for cell migration (wound closure): 15 µM
Experimental: Cell migration was measured by wound healing assay modified from Lertsuwan et al.,[27]. Briefly, MDA-MB-231 cells were seeded into a 24-well plate at a density of 4.0 × 10^5 cells/well and allowed to attach overnight. Thereafter, wound was created with a sterile 200-µL pipette tip, then the cells were treated with ACEA, GW405833 or the combination of both. Series of images of the scratched wound were taken under a phase contrast inverted microscope (model AE31) (Motic, China) from 0 to 36 h. The closure of the wound representing migration ability of the cells was measured by using ImageJ software (National Institutes of Health). Cell migration was calculated as the percentage of wound closure area compared to the initial scratched area.

UMR-106 cells [5] = assay: MTT cell viability assay, UMR-106 cells; conditions: for IC50: MTT; for effect of low concentrations on osteoblast growth: UMR-106 osteoblasts
Experimental: (§1) Osteoblast-like UMR-106 cells (RRID CVCL_3617; ATCC CRL-1661) and triple-negative breast cancer cells, MDA-MB-231 (RRID CVCL_0062; ATCC HTB-26) were obtained from American Type Culture Collection (ATCC, VA, USA). Cells were cultured in Dulbecco’s modified Eagle’s medium (DMEM) (Sigma-Aldrich, MO, USA) containing 10% (v/v) fetal bovine serum (FBS) and 1% penicillin–streptomycin (Gibco, Texas, USA) and maintained under 5% CO2 at 37 °C, and sub-cultured according to the manufacturer’s instruction.
(§2) Cell viability was assessed using the 3-(4,5-dimethylthiazol-2-yl)-2,5-diphenyltetrazolium bromide (MTT) colorimetric assay. The assay was performed according to a previously described method. In brief, cells were seeded into a 96-well plate at a density of 1.0 × 10^4 cells/well and allowed to attach overnight. Thereafter, they were treated with ACEA, GW405833 or the combination of both for the indicated times. MTT (Invitrogen, CA, USA) solution was added to the final concentration of 0.5 mg/mL in 100 µL in serum-free DMEM and incubated at 37 °C for 4 h, then stop solution was added and thoroughly mixed. The optical density at 595 nm was measured using a microplate reader (Multiskan EX) (Thermo Fisher Scientific, MA, USA). The percentage of cell viability was calculated based on the absorbance ratio between cells treated with the compounds and control multiplied by 100 (percent cell viability normalized to control).
(§3) All results are expressed as means ± standard errors (SEM). Unless otherwise specified, statistical analysis for multiple comparisons was performed using one-way analysis of variance (ANOVA). The difference between pairs of means was analyzed by Tukey post-test. A p-value < 0.05 was considered statistically significant. Calculation of the inhibitory concentration at 50% (IC50) and all statistical analyses were performed using GraphPad Prism 9 (GraphPad Software Inc., USA).

MDA-MB-231 cells [6] = assay: MTT cell viability assay, MDA-MB-231 cells; conditions: for IC50: MTT
Experimental: as §1, §2, §3

Row | Compound | cellular ROS levels compared to control group [1] | level of p-NF-κB p65 [2] | effect of pretreatment of MDA-MB-231 cells on CM-mediated suppression of UMR-106 cell viability (UMR-106 cells [3]) | percentage of wound closure (cell migration) (MDA-MB-231 cells [4]; 20 µM, 24 h) | percentage of wound closure (cell migration) (MDA-MB-231 cells [4]; 30 µM, 24 h) | percentage of wound closure (cell migration) (MDA-MB-231 cells [4]; 30 µM, 36 h) | IC50 (UMR-106 cells [5]; 24 h) [µM] | IC50 (UMR-106 cells [5]; 48 h) [µM] | IC50 (UMR-106 cells [5]; 72 h) [µM] | effect of low concentrations on osteoblast growth (UMR-106 cells [5]) | Fold differences between IC50 values of UMR-106 / MDA-MB-231 (MDA-MB-231 cells [6]; 24 h) [fold] | IC50 (MDA-MB-231 cells [6]; 24 h) [µM] | Fold differences between IC50 values of UMR-106 / MDA-MB-231 (MDA-MB-231 cells [6]; 48 h) [fold] | IC50 (MDA-MB-231 cells [6]; 48 h) [µM] | Fold differences between IC50 values of UMR-106 / MDA-MB-231 (MDA-MB-231 cells [6]; 72 h) [fold] | IC50 (MDA-MB-231 cells [6]; 72 h) [µM] | Fold differences between IC50 values of UMR-106 / MDA-MB-231 (MDA-MB-231 cells [6]; Average of 24, 48 and 72 h) [fold] | cell migration (wound closure) (MDA-MB-231 cells [4]; 24 h) | cell migration (wound closure) (MDA-MB-231 cells [4]; 36 h)
1 | CCCCC/C=C\C/C=C\C/C=C\C/C=C\CCCC(=O)NCCCl [ACEA] | remained unchanged | remained unchanged | did not alter CM-mediated osteoblast suppression | significantly decreased | significantly decreased; also recorded: significant reduction | significantly decreased | 104 | 62 | 38 | growth stimulatory effect | 1.54 | 67.8 | 1.63 | 38 | 1.16 | 32.8 | 1.44 | – | –
2 | COc1ccc2c(c1)c(CCN1CCOCC1)c(C)n2C(=O)c1cccc(Cl)c1Cl [GW405833] | remained unchanged | remained unchanged | significant recovery | – | – | – | 168 | 119 | 79.9 | growth stimulatory effect | 6.83 | 24.6 | 7.18 | 16.6 | 6.27 | 12.7 | 6.76 | significant reduction | significant cell migration suppression
